Some test systems named below: IGROV-1; MDA-MB-231; K562; M14; 786-0; SF-268; OVCAR-5; NCI-H23; SF-295; COLO 205; HCT-15; UACC-62; KM12; UACC-257; HOP-92; SN12C; MDA-MB-435; OVCAR-8; Hs-578T; CCRF-CEM.
Holding throughout (experiment): NCI anticancer screen, dose series, 48 h

Structures can show the parent of a compound that is named as a salt.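 All cell lines were grown in 96-well plates and treated with compound for 48 hours. At the GI50, growth is halved.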 The source made the active and inactive calls. Rule as the data show it: active = GI50 up to about 1.1 µM and inactive = higher.

As to `Nn1c(CCCCCCCCc2nnc(COc3ccc(Cl)cc3)n2N)nnc1COc1ccc(Cl)cc1`, the GI50 in the experiment on IGROV-1, in the experiment on MDA-MB-231, in the experiment with K562, in the experiment on M14, with 786-0 and in the experiment on SF-268 was > 100 µM (inactive) each time. The GI50 in the experiment on OVCAR-5 is > 100 µM (inactive); in the experiment with NCI-H23, > 100 µM (inactive); in the experiment on SF-295 it was > 100 µM (inactive); in the experiment on COLO 205 it was > 100 µM (inactive); in the experiment on HCT-15, above 100 µM; in the experiment on UACC-62, > 100 µM (inactive). In addition, the GI50 with KM12, in the experiment with UACC-257, with HOP-92, in the experiment on SN12C and with MDA-MB-435 was > 100 µM (inactive) each time.
Consider `S=c1oc(CCCCCCCCc2nn(CNc3ccccc3)c(=S)o2)nn1CNc1ccccc1`, for which the GI50 in the experiment on MDA-MB-231 is > 100 µM (inactive); in the experiment on K562, 57.5 µM (inactive); with M14, > 100 µM (inactive); with 786-0, > 100 µM (inactive); with SF-268, > 100 µM (inactive); in the experiment with OVCAR-5, > 100 µM (inactive). Further, the GI50 was > 100 µM (inactive) with NCI-H23; > 100 µM (inactive) in the experiment on SF-295; > 100 µM (inactive) in the experiment on COLO 205; above 100 µM in the experiment with HCT-15; > 100 µM (inactive) with UACC-62; > 100 µM (inactive) with KM12. Besides, the GI50 in the experiment on UACC-257, with HOP-92, in the experiment on SN12C and in the experiment with MDA-MB-435 was > 100 µM (inactive) throughout.
For the compound `c1ccc2c(c1)nc1n2CCCn2ccnc2-1`, the GI50 with IGROV-1, in the experiment on MDA-MB-231, with K562, in the experiment on M14, in the experiment with 786-0 and in the experiment with SF-268 was > 100 µM (inactive) each time. Further, the GI50 in the experiment on OVCAR-5 is > 100 µM (inactive); with NCI-H23, > 100 µM (inactive); with SF-295 it was > 100 µM (inactive); in the experiment on COLO 205, > 100 µM (inactive); in the experiment on HCT-15, 41.1 µM; in the experiment on UACC-62, > 100 µM (inactive). For the same compound, the GI50 was > 100 µM (inactive) with KM12; > 100 µM (inactive) in the experiment with HOP-92; 67.5 µM (inactive) in the experiment with OVCAR-8; > 100 µM (inactive) in the experiment with SN12C; > 100 µM (inactive) with Hs-578T.
As for `Cc1ccc(Nc2cn(COCc3ccccc3)c(=O)[nH]c2=O)cc1`, the GI50 is 45.6 µM (inactive) with IGROV-1; > 100 µM (inactive) in the experiment with CCRF-CEM; > 100 µM (inactive) in the experiment with K562; > 100 µM (inactive) with M14; 43.5 µM (inactive) in the experiment on 786-0; 27.8 µM (inactive) with SF-268. Moreover, the GI50 with OVCAR-5 is > 100 µM (inactive); with NCI-H23, 25.5 µM (inactive); in the experiment on SF-295 it was 39.7 µM (inactive); in the experiment on COLO 205, > 100 µM (inactive); in the experiment on HCT-15 it was above 100 µM; in the experiment with UACC-62, 43.9 µM (inactive). The GI50 is > 100 µM (inactive) in the experiment with KM12; > 100 µM (inactive) in the experiment with UACC-257; > 100 µM (inactive) with HOP-92; > 100 µM (inactive) in the experiment with SN12C; 24.9 µM (inactive) with Hs-578T; > 100 µM (inactive) in the experiment on MDA-MB-435.
In the case of `O=C1CC(Cl)c2c1csc2Br` (stereo unspecified), the GI50 was 16.5 µM (inactive) in the experiment on IGROV-1; 2.65 µM (inactive) with CCRF-CEM; 17.6 µM (inactive) in the experiment with K562; 13.9 µM (inactive) with M14; 7.91 µM (inactive) in the experiment with 786-0; 16.8 µM (inactive) in the experiment with SF-268. For the same compound, the GI50 in the experiment with OVCAR-5 was 18.2 µM (inactive); with NCI-H23, 15.3 µM (inactive); in the experiment on SF-295 it was 23.7 µM (inactive); with COLO 205 it was 15.2 µM (inactive); in the experiment on HCT-15, 12.9 µM; in the experiment with UACC-62, 15.3 µM (inactive). The GI50 in the experiment on KM12 is 13.2 µM (inactive); in the experiment on UACC-257, 16.3 µM (inactive); with HOP-92, 21.5 µM (inactive); in the experiment on OVCAR-8, 16.3 µM (inactive); in the experiment on SN12C, 17.6 µM (inactive); in the experiment on Hs-578T, 21.6 µM (inactive). Further, in the experiment on MDA-MB-435, the GI50 was 15.1 µM (inactive).
As to `O=C1CCCC2=C1CC1=C(CCCC1=O)N2c1cccc2ccccc12`, the GI50 in the experiment on IGROV-1 was > 100 µM (inactive); in the experiment on CCRF-CEM it was 47.3 µM (inactive); with K562, 44 µM (inactive); with M14 it was > 100 µM (inactive); with 786-0, 57.1 µM (inactive); with SF-268, 45.1 µM (inactive). Also, the GI50 in the experiment on OVCAR-5 was > 100 µM (inactive); in the experiment on NCI-H23, 52.5 µM (inactive); with HCT-15, 66.7 µM; in the experiment with UACC-62, 64.1 µM (inactive); with KM12, > 100 µM (inactive); in the experiment on HOP-92, 33 µM (inactive). For the same compound, the GI50 in the experiment with OVCAR-8 is 69.2 µM (inactive); in the experiment on SN12C, > 100 µM (inactive); with Hs-578T, 33.8 µM (inactive).
On to `CC(=O)[C@@H]1C/C(=C\OCc2ccccc2)O[C@H]1C`, for which the GI50 in the experiment on IGROV-1 was > 100 µM (inactive); in the experiment with MDA-MB-231 it was > 100 µM (inactive); in the experiment with K562 it was 54 µM (inactive); with M14, > 100 µM (inactive); with 786-0 it was > 100 µM (inactive); in the experiment on SF-268, > 100 µM (inactive). Also, the GI50 in the experiment on OVCAR-5 is > 100 µM (inactive); in the experiment on NCI-H23, > 100 µM (inactive); in the experiment with SF-295, > 100 µM (inactive); in the experiment on COLO 205 it was > 100 µM (inactive); in the experiment on HCT-15 it was above 100 µM; in the experiment with KM12 it was > 100 µM (inactive). The GI50 in the experiment with UACC-257, with HOP-92, in the experiment on OVCAR-8, in the experiment on SN12C and in the experiment on MDA-MB-435 was > 100 µM (inactive) throughout.
With `CCCCCCCCCCCCCCCCCCNc1ccn(C2OC(COP(=O)(O)OCC3CCC(n4cnc5c(=O)[nH]cnc54)O3)C(O)C2O)c(=O)n1` (stereo unspecified), the GI50 in the experiment with IGROV-1 was 84.1 µM (inactive); in the experiment with CCRF-CEM, 29.3 µM (inactive); in the experiment with M14, > 100 µM (inactive); in the experiment with 786-0, 43.5 µM (inactive); in the experiment with SF-268, > 100 µM (inactive); in the experiment with OVCAR-5, 35.4 µM (inactive). Further, the GI50 with NCI-H23 is > 100 µM (inactive); in the experiment on SF-295 it was > 100 µM (inactive); with COLO 205, > 100 µM (inactive); in the experiment on HCT-15 it was 97.5 µM; in the experiment on UACC-62, > 100 µM (inactive); with KM12, > 100 µM (inactive). The GI50 with UACC-257, with HOP-92, in the experiment on OVCAR-8, with SN12C, in the experiment on Hs-578T and with MDA-MB-435 was > 100 µM (inactive) in each case.
As to `Cc1ccc(-c2c(C#N)c(-c3ccccc3)n(NS(=O)(=O)c3ccc(C)cc3)c(=O)c2C#N)cc1`, the GI50 with IGROV-1 is 36.7 µM (inactive); in the experiment on CCRF-CEM it was 23 µM (inactive); in the experiment on MDA-MB-231, > 100 µM (inactive); in the experiment on K562, 48 µM (inactive); with M14, 74.1 µM (inactive); in the experiment on 786-0, 59.4 µM (inactive). Further, the GI50 in the experiment with SF-268 is 90.8 µM (inactive); in the experiment on OVCAR-5, > 100 µM (inactive); in the experiment with SF-295 it was 41.3 µM (inactive); in the experiment on COLO 205, > 100 µM (inactive); in the experiment with HCT-15, 36.4 µM; in the experiment on UACC-62 it was 43.8 µM (inactive). Besides, the GI50 was 27.4 µM (inactive) with KM12; > 100 µM (inactive) in the experiment on UACC-257; 11.4 µM (inactive) with HOP-92; 41.9 µM (inactive) in the experiment on OVCAR-8; 82.6 µM (inactive) with SN12C; 61.7 µM (inactive) in the experiment on MDA-MB-435.
Consider `Cc1nn(-c2ccccc2)c2nc3c(c(C)nn3-c3ccccc3)c(-c3ccccc3Br)c12`, for which the GI50 in the experiment on IGROV-1, with CCRF-CEM, in the experiment on MDA-MB-231, in the experiment with K562, in the experiment with M14 and in the experiment with 786-0 was > 100 µM (inactive) throughout. Besides, the GI50 in the experiment on SF-268 is > 100 µM (inactive); with OVCAR-5 it was > 100 µM (inactive); in the experiment on NCI-H23, > 100 µM (inactive); with SF-295 it was 57.3 µM (inactive); in the experiment with COLO 205 it was > 100 µM (inactive); in the experiment on HCT-15, above 100 µM. The GI50 with UACC-62, in the experiment on KM12, in the experiment on UACC-257, in the experiment on HOP-92, in the experiment on OVCAR-8 and in the experiment with SN12C was > 100 µM (inactive) throughout. The GI50 in the experiment on MDA-MB-435 is > 100 µM (inactive).
In the case of `NCCc1cc(O)c(O)cc1O` [OXIDOPAMINE HYDROCHLORIDE], the GI50 with IGROV-1 is 19.3 µM (inactive); with CCRF-CEM it was 3.97 µM (inactive); with MDA-MB-231 it was 19.5 µM (inactive); with K562, 21.5 µM (inactive); in the experiment on M14, 20 µM (inactive); in the experiment with 786-0 it was 18.6 µM (inactive). The GI50 in the experiment on SF-268 is 21.8 µM (inactive); in the experiment on OVCAR-5, 37.1 µM (inactive); in the experiment on SF-295, 24 µM (inactive); in the experiment on COLO 205 it was 41.9 µM (inactive); in the experiment with HCT-15, 17.1 µM; in the experiment on UACC-62 it was 31.2 µM (inactive). Besides, the GI50 is 17.5 µM (inactive) with KM12; 20.4 µM (inactive) in the experiment with UACC-257; 32.4 µM (inactive) with OVCAR-8; 25.3 µM (inactive) with SN12C; 18.9 µM (inactive) in the experiment on MDA-MB-435.

The values above are taken from ChEMBL document CHEMBL1201862, “PubChem BioAssay data set” (2004).
